# Values of other authors, collected in US20230390221A1, “PHARMACEUTICAL COMPOSITIONS WITH LOW AMOUNTS OF NITROSAMINE IMPURITIES AND METHODS FOR PRODUCING THE SAME” (Zentiva K.S., priority 2020, published 2023).
# Settings: limit set by EMA or FDA
row,Compound,acceptable daily limits [ng/day]
1,"CN(C)N=O [NDMA, N-nitrosodimethylamine]",96
2,"CCN(CC)N=O [NDEA, N-nitrosodiethylamine]",26.5
